According to patent US9718805B2, “Triazole compounds and their use as gamma secretase modulators” (Acturum Life Science AB, priority 2013, dated 2017):

How the values were obtained:
[1] = tested on: Aβ42 formation in primary cortical neuronal cells (PCN); assay: PCN assay (Aβ42 secreted by primary cortical neuronal cells, ELISA); format: cell-based; settings: mouse primary cortical neuronal cells; 16-20 hours incubation with test compound; read-out: pIC50 Aβ42 PCN assay (converted)
Procedure: (§1) The level of activity of the compounds on Aβ formation was tested using the following methods:
Compounds were diluted in 100% DMSO and stored at 20° C. prior to use. Primary cortical neuronal cells (PCN) were isolated from 16-day mouse embryos and cultured in Ham's F12 media containing 10% Foetal bovine serum, 10 mM Hepes, 2 mM L-glutamine and 100 U/ml Penicillin-Streptomycin. 150000-250000 cells/well, in 200 μl cell media were seeded onto 96-well poly-D-Lysine coated plates. After incubation at 37° C., 5% CO2 for five days, the media was exchanged for fresh medium containing test compound diluted ×100, before further incubation for 16-20 hours at 37° C. and 5% CO2. After incubation with test compound the amount of Aβ42 peptides secreted to cell medium was analyzed using the solid phase sandwich Enzyme-Linked-Immuno-Sorbent Assay (ELISA)-kit from Invitrogen for detection of mouse βAmyloid 1-42. Potential cytotoxic effects of the compounds were assayed by measuring the ATP content (Via Light) from cell lysate.

[2] = tested on: Aβ42 formation in HEK cell line stably expressing APP with the Swedish mutation (APPswe); assay: HEK assay (Aβ42 secreted to cell medium, Meso Scale electrochemiluminescence); format: cell-based; settings: Homo sapiens, HEK293; HEK cells expressing APPswe; 4-6 hours incubation with test compound; read-out: pIC50 Aβ42 HEK assay (converted)
Procedure: as §1
Compounds were diluted in 100% DMSO and stored at 20° C. prior to use. Human Embryonic Kidney (HEK) cell line stably expressing APP with the Swedish mutation (APPswe) was cultured using Dulbecco's Modified Eagles medium (DMEM) supplied with […] glucose, Na-pyruvate and GlutaMAX, 10% Foetal bovine serum, 100 U/mL penicillin-streptomycin (PEST), 1× non-essential amino acids (NEAA), […] Hepes, 100 μg/mL Zeocine. Cells at about 80% confluence were washed with PBS, detached from culture flasks using 1×Trypsin/EDTA diluted in PBS, re-suspended in cell media and plated in 384-well poly-d-lysine coated cell culture plates at about 10000-15000 cells/well, in 25 μL cell media. Optionally, cryo-preserved cells (frozen and stored at −140° C. in 90% cell media and 10% DMSO) were thawed, washed and plated as above. Next the cells were incubated for 15-24 h at 37° C. and 5% CO2, after which cell medium was changed. Fresh medium containing test compound diluted ×200 from prepared compound plate was added to the cells before further incubation for 4-6 hours at 37° C. and 5% CO2. After incubation with test compound the amount of Aβ peptides, including Aβ42, Aβ40, Aβ39, Aβ38 and Aβ37, secreted to cell medium was analyzed using the electrochemiluminescence assay technology from Meso Scale Discovery Technology, in combination with specific antibodies raised against the different Aβ peptides. Potential cytotoxic effects of the compounds were assayed by measuring the ATP content (ViaLight) from cell lysate.

Row | SMILES | IC50 [1] [nM] | IC50 [2] [nM]
1 | COc1cc(Nc2nc(NCC3CC3)n(C)n2)ccc1-n1cnc(C)c1 [Example 1, N^5-(Cyclopropylmethyl)-N^3-[3-methoxy-4-(4-methyl-1H-imidazol-1-yl)phenyl]-1-methyl-1H-1,2,4-triazole-3,5-diamine] | 158 | 79.4
2 | COc1cc(Nc2nc(N(CC3CC3)CC3CC3)n(C)n2)ccc1-n1cnc(C)c1 [Example 2, 5-N,5-N-Bis(cyclopropylmethyl)-3-N-[3-methoxy-4-(4-methyl-1H-imidazol-1-yl)phenyl]-1-methyl-1H-1,2,4-triazole-3,5-diamine] |  | 63.1
3 | COc1cc(Nc2nc(NCC3CC3)n(CC(C)C)n2)ccc1-n1cnc(C)c1 [Example 3, 5-N-(Cyclopropylmethyl)-3-N-[3-methoxy-4-(4-methyl-1H-imidazol-1-yl)phenyl]-1-(2-methylpropyl)-1H-1,2,4-triazole-3,5-diamine] |  | 63.1
4 | COc1cc(Nc2nc(N(C)CC(C)(C)O)n(Cc3ccccc3)n2)ccc1-n1cnc(C)c1 [Example 4, 1-[(1-Benzyl-3-{[3-methoxy-4-(4-methyl-1H-imidazol-1-yl)phenyl]amino}-1H-1,2,4-triazol-5-yl)(methyl)amino]-2-methylpropan-2-ol] |  | 100
5 | COc1cc(Nc2nc(N(C)CC3CC3)n(CC(C)(C)O)n2)ccc1-n1cnc(C)c1 [Example 5, 1-{5-[(Cyclopropylmethyl)(methyl)amino]-3-{[3-methoxy-4-(4-methyl-1H-imidazol-1-yl)-phenyl]amino}-1H-1,2,4-triazol-1-yl}-2-methylpropan-2-ol] |  | 79.4
6 | COc1cc(Nc2nc(NCc3ccccc3)n(CC(C)(C)O)n2)ccc1-n1cnc(C)c1 [Example 6, 1-[5-(Benzylamino)-3-{[3-methoxy-4-(4-methyl-1H-imidazol-1-yl)phenyl]amino}1H-1,2,4-triazol-1-yl]-2-methylpropan-2-ol] | 15.8 | 20
7 | COc1cc(Nc2nc(N(C)Cc3ccccc3)n(CC(C)(C)O)n2)ccc1-n1cnc(C)c1 [Example 7, 1-{5-[Benzyl(methyl)amino]-3-{[3-methoxy-4-(4-methyl-1H-imidazol-1-yl)phenyl]amino}-1H-1,2,4-triazol-1-yl}-2-methylpropan-2-ol] | 20 | 15.8
